Measured values published in PubChem BioAssay (NCI).
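Protocol summary: plate cells (96-well), add compound at 5 concentrations, incubate 48 h, interpolate endpoints linearly. GI50 is the concentration that inhibits growth by half. TGI: concentration producing complete growth inhibition.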

What was measured:
Test in all cases: NCI anticancer screen, dose series, 48 h
ACHN renal = test system: ACHN renal
LOX IMVI melanoma = test system: LOX IMVI melanoma
MDA-MB-435 = test system: MDA-MB-435
MOLT-4 leukemia = test system: MOLT-4 leukemia
NCI-H522 lung = test system: NCI-H522 lung
OVCAR-5 ovarian = test system: OVCAR-5 ovarian
RPMI-8226 leukemia = test system: RPMI-8226 leukemia
RXF 393 renal = test system: RXF 393 renal
SF-268 CNS = test system: SF-268 CNS
SF-539 CNS = test system: SF-539 CNS
SK-OV-3 ovarian = test system: SK-OV-3 ovarian
U251 CNS = test system: U251 CNS
UACC-257 melanoma = test system: UACC-257 melanoma

SMILES	TGI (ACHN renal) [µM]	TGI (LOX IMVI melanoma) [µM]	TGI (MDA-MB-435) [µM]	TGI (MOLT-4 leukemia) [µM]	TGI (NCI-H522 lung) [µM]	TGI (OVCAR-5 ovarian) [µM]	TGI (RPMI-8226 leukemia) [µM]	TGI (RXF 393 renal) [µM]	TGI (SF-268 CNS) [µM]	TGI (SF-539 CNS) [µM]	TGI (SK-OV-3 ovarian) [µM]	TGI (U251 CNS) [µM]	TGI (UACC-257 melanoma) [µM]	GI50 (ACHN renal) [µM]	GI50 (LOX IMVI melanoma) [µM]	GI50 (SF-268 CNS) [µM]	GI50 (SF-539 CNS) [µM]	GI50 (U251 CNS) [µM]
CCOC(=O)C(=O)C(CCC(=O)c1ccc2ccccc2c1O)C(=O)OCC (centres undefined)	> 100	> 100	> 100	> 100	> 100	> 100	> 100	> 100	> 100	> 100	> 100	> 100	> 100					
CCC(=O)C(C(C)/C=C/CCSc1ccccc1)C(O)CCCCCC(=O)OC (centres undefined)	> 100	> 100	> 100	81	> 100	> 100	> 100	> 100	> 100	> 100	> 100	> 100	> 100					
c1ccc(CC2(c3cc4ccccc4[nH]3)OCCO2)nc1	> 100	> 100	> 100	> 100	> 100	> 100	> 100	> 100	> 100	> 100	> 100	> 100	> 100					
CC(C)C(NCc1c(O)ccc2c(-c3ccccc3)cc(=O)oc12)C(=O)O (centres undefined)	> 100	> 100	> 100	> 100	> 100	> 100	> 100	> 100	> 100	> 100	> 100	> 100	> 100					
COc1cc(C(=O)Oc2c(C#N)sc3c2c(=O)n(-c2ccccc2)c(=S)n3-c2ccccc2)cc(OC)c1OC	> 100	51.6	36.8	40.6	2.11	46.7	28.2	47.9	84.2	24.1	> 100	45.9	> 100					
COc1ccc(C(=O)Nc2ccc3oc(-c4ccccc4)nc3c2)cc1	> 100	> 100	> 100	> 100	> 100	> 100	> 100	> 100	> 100	> 100	> 100	> 100	> 100					
CC(=O)OCC(Br)C1(C)CCC(C(C)(C)Br)O1 (centres undefined)	> 100	> 100	> 100	> 100	86.7	> 100	> 100	> 100	> 100	> 100	> 100	> 100	45.2					
O=C(/C=C(\O)c1ccccc1)c1cc(-c2ccccc2)n(-c2ccccc2)n1	23.9	> 100	> 100	4.51	42.4	> 100	6.1	> 100	> 100	72.3	> 100	62.6	> 100					
O=c1[nH]c2c(c(=O)[nH]1)SSC2	> 67.5	6.24	4.67	4.79	38.5	32.4	6.83	28.5	13.6	9.7	50.9	30.1	14.8					
CC(=O)O[C@@H](C1C[C@@H](C)[C@H]2[C@@](O)(O1)[C@H](O)[C@@]1(C)C3=CC[C@H]4C(C)(C)[C@@H](OC5OCC(O)C(O)C5O)CC[C@@]45C[C@@]35CC[C@]21C)C(C)(C)O (some centres undefined)	47.2	42.4	53.3	44.8	36.9	56.6	59.5	36.9	> 100	30.3	63.9	36	38.4					
CCOC(=O)/C(C#N)=C/c1ccc2c(c1)CC1(C2)Cc2cc(CC)c(C(C)O)cc2C1 (centres undefined)	> 85.1	22	4.83	> 58.6	> 100	> 93.1	51.6	38.5	32.1	22.1	98.2	20.3	45.6					
Cc1cc(-c2nc3cccc(F)c3s2)ccc1N	> 100	> 100	> 100	> 96.1	> 100	> 100	> 100	> 100	> 86	> 100	> 100	> 100	> 100					
Nc1nc(N)c2nc(CNc3ccc(C(=O)NC(CCCCNC(=O)c4ccccc4C(=O)O)C(=O)O)cc3)cnc2n1 (centres undefined)	> 100	> 100	> 31.6	> 100	> 100	> 100	> 100	> 100	> 100		> 100	> 100	> 100	0.00519	0.000869	0.00841	0.026	0.0385
CCN(CC)CCO/N=C1/C=C2CCC3C(CC[C@@]4(C)C3CC[C@]4(C)O)[C@@]2(C)CC1 (some centres undefined)	39.2	14.8	4.77	10.2	6.07	80	15.2	72.2	31.2	14.9	46.4	11.2	18.2					
CCOP(=O)(OCC)/C(C#N)=C/c1ccnc2ccccc12	> 100	> 100	31.3	> 100	57.8	51	> 100	79.1	56.5	49.2	82.7	> 100	> 100					
